Where “and” joins values, the source holds several entries; their conditions need not be identical. Equal values may be shown once.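 Cultured in 96-well plates, cells were exposed to test compound for 48 hours across five concentrations. At the TGI there is no net growth.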
Columns and labels:
Assay in all cases: NCI-60 cell line screen, 48 h
UACC-62 melanoma = test system: UACC-62 melanoma
SF-295 CNS = test system: SF-295 CNS
HOP-62 NSCLC = test system: HOP-62 NSCLC
OVCAR-3 ovarian = test system: OVCAR-3 ovarian
SK-MEL-2 melanoma = test system: SK-MEL-2 melanoma
OVCAR-8 ovarian = test system: OVCAR-8 ovarian
OVCAR-5 ovarian = test system: OVCAR-5 ovarian
SF-268 CNS = test system: SF-268 CNS
RPMI-8226 leukemia = test system: RPMI-8226 leukemia
COLO 205 colon = test system: COLO 205 colon
EKVX NSCLC = test system: EKVX NSCLC
786-0 renal = test system: 786-0 renal
PC-3 prostate = test system: PC-3 prostate
NCI/ADR-RES ovarian = test system: NCI/ADR-RES ovarian
A549 NSCLC = test system: A549 NSCLC
T-47D breast = test system: T-47D breast
NCI-H226 lung = test system: NCI-H226 lung
SNB-75 CNS = test system: SNB-75 CNS
RXF 393 renal = test system: RXF 393 renal
SNB-19 CNS = test system: SNB-19 CNS

| SMILES | TGI (UACC-62 melanoma) [µM] | TGI (SF-295 CNS) [µM] | TGI (HOP-62 NSCLC) [µM] | TGI (OVCAR-3 ovarian) [µM] | TGI (SK-MEL-2 melanoma) [µM] | TGI (OVCAR-8 ovarian) [µM] | TGI (OVCAR-5 ovarian) [µM] | TGI (SF-268 CNS) [µM] | TGI (RPMI-8226 leukemia) [µM] | TGI (COLO 205 colon) [µM] | TGI (EKVX NSCLC) [µM] | TGI (786-0 renal) [µM] | TGI (PC-3 prostate) [µM] | TGI (NCI/ADR-RES ovarian) [µM] | TGI (A549 NSCLC) [µM] | TGI (T-47D breast) [µM] | TGI (NCI-H226 lung) [µM] | TGI (SNB-75 CNS) | TGI (RXF 393 renal) [µM] | TGI (SNB-19 CNS) [µM] |
| --- | --- | --- | --- | --- | --- | --- | --- | --- | --- | --- | --- | --- | --- | --- | --- | --- | --- | --- | --- | --- |
| Cc1cc(-c2nc3ccccc3s2)ccc1N | > 74.3 | > 85.3 | > 100 | > 86.6 | > 84 | > 89.3 | 70.6 | > 83.8 | > 100 | > 76.9 | > 95.3 | > 79.6 | > 88.8 | > 87.6 | > 100 | > 85.9 | > 92 | > 88.8 µM | 98.7 | > 100 |
| CCN(CC)CCCn1c(=O)c2ccccc2n2c3c(=O)n(C)c(=O)n(C)c3nc12 | 24.1 | 15.6 | 15.1 | 33.6 | 35 | 23.4 | 32.9 | 23 | 49.7 | 20.6 | 36.6 | 18.6 | 23 | 47.2 | 10.4 | 49.8 | 14.3 | 18.6 µM | 45.8 | 35.3 |
| O=C(N/N=C/c1ccc([N+](=O)[O-])o1)c1ccc(C(=O)N/N=C/c2ccc([N+](=O)[O-])o2)cc1 | > 100 | > 100 | > 100 | 73.9 | > 100 | 77.9 | > 100 | > 100 | 26.1 | 94.7 | > 100 | > 100 | > 100 | > 100 | > 100 | > 100 | > 100 | > 100 µM | > 100 | > 100 |
| CCOP(=O)(C/C=C/Cn1nc(Br)c(=O)[nH]c1=O)OCC | > 100 | > 100 | > 100 | > 100 | > 100 | > 100 | > 100 | > 100 | > 100 | > 100 | > 100 | > 100 | > 100 | > 100 | > 100 | > 100 | > 100 | > 100 µM | > 100 | > 100 |
| CN(C)Cc1cc(C(C)(C)C)ccc1-c1ccc(C(C)(C)C)cc1CN(C)C | > 100 | > 100 | > 100 | > 100 | > 100 | > 100 | > 100 | > 100 | > 100 | > 100 | > 100 | > 100 | > 100 | > 100 | > 100 | > 100 | > 100 | > 100 µM | > 100 | > 100 |
| Nc1ncc(Cl)c(NCC2(CO)CC(CCc3ccccc3)C2)n1 (stereo not given) | > 100 | > 100 | > 100 | > 100 | > 100 | > 100 | > 100 | > 100 | > 100 | > 100 | > 100 | > 100 | > 100 | > 100 | > 100 | > 100 | > 100 | 99.4 µM | > 100 | > 100 |
| Cc1nc2c(nc1C)-c1c(c3c(n1C)C(=O)CCC3)C(=O)C2=O | 1.5 | 3.71 | 2.37 | 0.646 | 1.29 | 0.638 | 2.72 | 1.22 | 0.636 | 3.46 | 2.65 | 3.23 | 3.14 | 2.05 | 4.56 | 0.0932 | 2.77 | 2.14 µM | 0.474 | 2.82 |
| Cc1ccc(N=N/C(=N/NC(=O)c2cc(Cl)ccc2C(=O)c2ccccc2)c2ccc(N(CCC#N)CCC#N)cc2C)cc1 | 36.2 | 86.9 | > 100 | 16.4 | 28.2 | 29.9 | > 100 | > 100 | 96.9 | 27.7 | 84.7 | 53.7 | 47.2 | 62.1 | 58.7 | 27.9 | 38 | > 100 µM | 7.24 | > 100 |
| CN(C)CC1COC2Cc3ccccc3C1O2 (stereo not given) | > 100 | > 100 | > 100 | > 100 | > 100 | > 100 | > 100 | > 100 | > 100 | > 100 | > 100 | > 100 | > 100 | > 100 | > 100 | > 100 | > 100 | 75.7 µM and 94.5 µM | > 100 | > 100 |

— PubChem BioAssay (NCI)
